Laboratory results from US5084082A, “Soybean plants with dominant selectable trait for herbicide resistance” (priority 1990, dated 1992).

Key:
[1] = test system: Williams 82 (wild type soybean cultivar); assay: Pilot study in modified Hydropot Solo hydroponic system; assay type: in vivo; settings: Williams 82, 100 ppb in nutrient solution, 10 days after planting
Description: (§1) A pilot study was conducted to determine whether the modified Hydropot Solo system could be used to consistently differentiate between previously isolated (Sebastian and Chaleff, 1987. Crop Science 27:948-952) SU-tolerant mutants and wild type soybean plants. Four Hydropot Solo units were prepared with each planting tank containing a lower layer of pea gravel and an upper layer of fine vermiculite as described previously. Each reservoir was filled with tap water supplemented with 1/4 tablespoon of Miracle Grow soluble fertilizer per gallon. One hydroponic unit served as an untreated control while the nutrient solution of each of the other three was supplemented with either 100, 300, or 1000 ppb of an experimental sulfonylurea herbicide Compound 12. Ten seeds each of Williams 82 (wild type soybean cultivar), mutant 1-184A, mutant 1-183A, mutant 1-166A, and mutant 1-126A were then planted 2 cm deep into the vermiculite layer of each of the four hydroponic units. The programmable timer was set to irrigate the planting tanks for four 30-minute intervals during each 24-hour period. […] Differences between mutant and wild type became less dramatic as the herbicide concentration increased to 1000 ppb. […] These observations confirmed that the modified Hydropot system could be used to select for herbicide tolerance. […]

[2] = test system: SU-tolerant mutants 1-184A, 1-183A, 1-166A, 1-126A; assay: as above; assay type: in vivo, soybean
Description: as §1

[3] = test system: mutants that have heritable sulfonylurea tolerance; assay: Pilot studies, threshold concentration in hydroponic system; assay type: in vivo, soybean; settings: sulfonylurea tolerant mutants, 100 mg/L used to irrigate the hydroponic system
Source text: (§2) The same sulfonylurea concentrations would select only highly resistant plants.

wild type soybeans = assay: as above; assay type: in vivo, soybean; settings: 100 mg/L used to irrigate the hydroponic system
Source text: as §2

Williams 82 = assay: Test B postemergence cross resistance test; assay type: in vivo, soybean; settings: Glycine max, post-emergence, read-out: mean % injury
Source text: (§3) In the second postemergence test, six true-breeding resistant mutant lines (W4, W17, W19, W20, W23, and W28) were compared to Williams 82 for cross resistance to a broad range of ALS inhibitors including eight sulfonylureas and three imidazolinones. Two seeds were planted in each 10 cm pot and allowed to grow to the second trifoliolate stage. Pots were not thinned back if both plants were at the proper stage. For each of 11 herbicides, two rates (Table VII) were selected based on previous data: the low rate was expected to cause significant injury (but not death) to Williams 82 and the high rate was expected to severely injure or kill Williams 82. All but a few line x rate treatments were replicated twice.
(§4) In both postemergence tests, plants were returned to the greenhouse after treatment and provided with ample light, moisture, and nutrients to support healthy plant growth. Two to three ratings per pot were recorded over a three-week period and averaged to obtain a single value for each pot For each herbicide, analysis of variance on injury ratings was performed separately. Fisher's least significant difference (LSD) was used to determine the significance of line mean differences at each herbicide rate using the 95% level of confidence. […]

mutant line W17 = assay: Test B postemergence cross resistance test; assay type: in vivo, soybean; settings: Glycine max, post-emergence
Source text: as §3, §4

mutant line W19 = assay: Test B postemergence cross resistance test; assay type: in vivo, soybean; settings: Glycine max, post-emergence
Source text: as §3, §4

mutant line W23 = assay: Test B postemergence cross resistance test; assay type: in vivo, soybean; settings: Glycine max, post-emergence
Source text: as §3, §4

mutant line W28 = assay: Test B postemergence cross resistance test; assay type: in vivo, soybean; settings: Glycine max, post-emergence
Source text: as §3, §4

mutant line W4 = assay: Test B postemergence cross resistance test; assay type: in vivo, soybean; settings: Glycine max, post-emergence
Source text: as §3, §4

mutant line W20 = assay: Test B postemergence cross resistance test; assay type: in vivo, soybean; settings: Glycine max, post-emergence
Source text: as §3
In both postemergence tests, plants were returned to the greenhouse after treatment and provided with ample light, moisture, and nutrients to support healthy plant growth. Two to three ratings per pot were recorded over a three-week period and averaged to obtain a single value for each pot For each herbicide, analysis of variance on injury ratings was performed separately. Fisher's least significant difference (LSD) was used to determine the significance of line mean differences at each herbicide rate using the 95% level of confidence.

ALS of W20 = assay: In vitro ALS activity of leaf tissue in the presence of Compounds 8 and 9; assay type: biochemical, soybean; settings: W20, 10 ppm
Source text: (§5) At approximately 1 month after transplantation, some of the selections appeared much healthier than others. For example, W4-4, W4-6, W6-1, W6-2, W6-4, W23-10, and W23-11 recovered very well from the seed soak treatment with Compound 8. These plants were suspected of having a higher level of ALS resistance to Compound 8 than did the parental material from which they were derived. The applicant was also interested to see if any of these selections were cross resistant to an imidazolinone herbicide such as Compound 9. To test this hypothesis, leaf tissue of the one-month-old M2 plants was sampled and assayed in vitro for ALS activity in the presence of Compound 8 and Compound 9. The ALS assay procedure was essentially identical to the previously described ALS assay except that the herbicide concentrations tested were 100 ppb Compound 8 and 10 ppm Compound 9. Williams and mutant W20 soybean plants were also assayed as control genotypes for comparison. Williams contains no genes conferring the ALS-based sulfonylurea resistance while W20 is homozygous for a single mutation conferring ALS-based sulfonylurea resistance.
(§6) Acetolactate synthase (ALS) was extracted from leaves of soybean plants growing vegetatively. The leaves were homogenized in 4 volumes of buffer containing 100 mM hepes (pH 7.5), 1 mM sodium pyruvate, 0.5 mM magnesium chloride, 0.5 mM thiamine pyrophosphate, […], 10% glycerol, 5% PVPP, and 0.2% mercaptoethanol. The homogenate was filtered through cheese cloth and centrifuged at 20,000 g for 20 min. ALS was precipitated from the supernatant with ammonium sulfate. The enzyme was collected between 20 and 60% saturation by centrifugation at 20,000 g for 20 min. The pellet was resuspended in buffer containing 100 mM Hepes, 1 mM sodium pyruvate, and 0.5 mM magnesium chloride, and desalted on PD-10 columns (Pharmacia) equilibrated with the same buffer. ALS assays were carried out in a final volume of 0.5 mL at 30° C. The final reaction mixture contained 100 mM Hepes (pH 7.5), 1 mM magnesium chloride, 60 mM sodium pyruvate, 0.4 mM thiaminepyrophosphate, […], and various concentrations of chlorsulfuron. The assays were initiated with the addition of enzyme ([…]) and terminated with the addition of […] of 6N sulfuric acid. The acidified reaction mixture was heated to 60° C. for 15 min, after which 0.5 mL of 0.5% (W/V) creatine and 0.5 mL of 5% (W/V) napthol (freshly prepared in 2.5 N sodium hydroxide) were added. The reaction mixtures were heated for an additional 15 min at 60° C., and the absorbance was read at 525 nm. Data are expressed in terms of % control (minus Compound 1) activity and are the average of two replications. Fisher's least significant difference (LSD) value (at the 95% level of confidence) was calculated for each Compound 1 concentration to determine the significance of genotype mean differences.

ALS of W23-10 = assay: as above; assay type: biochemical, soybean; settings: W23-10, 10 ppm
Source text: as §5, §6

ALS of W23-11 = assay: as above; assay type: biochemical, soybean; settings: W23-11, 10 ppm
Source text: as §5, §6

ALS of W4-4 = assay: as above; assay type: biochemical, soybean; settings: W4-4, 10 ppm
Source text: as §5, §6

ALS of W4-5 = assay: as above; assay type: biochemical, soybean; settings: W4-5, 10 ppm
Source text: as §5, §6

ALS of W4-6 = assay: as above; assay type: biochemical, soybean; settings: W4-6, 10 ppm
Source text: as §5, §6

ALS of W6-1 = assay: as above; assay type: biochemical, soybean; settings: W6-1, 10 ppm
Source text: as §5, §6

ALS of W6-2 = assay: as above; assay type: biochemical, soybean; settings: W6-2, 10 ppm
Source text: as §5, §6

ALS of W6-4 = assay: as above; assay type: biochemical, soybean; settings: W6-4, 10 ppm
Source text: as §5, §6

ALS of Williams = assay: as above; assay type: biochemical, soybean; settings: 10 ppm
Source text: as §5, §6

tolerant tomato lines = settings: cited from earlier work
original cultivar = settings: original tomato cultivar; cited from earlier work

SMILES: COc1cc(OC)nc(NC(=O)NS(=O)(=O)c2cccc3c2S(=O)(=O)C(C)C3)n1 (single isomer, unassigned) [Compound 12, N-[[(4,6-dimethoxy-2-pyrimidinyl)amino]carbonyl]-2,3,-dihydro-2-methylbenzo [B] thiophene-7-sulfonamide, 1,1-dioxide]
- formation of unifoliolate leaves and secondary roots [1]: could not
- formation of unifoliolate leaves and secondary roots ([2]; tolerant mutant plants, 100 ppb in nutrient solution, 10 days after planting): able to form both unifoliolate leaves and secondary roots
- further development on prolonged exposure ([2]; tolerant mutants, 100 ppb, 20 to 28 days): prevented further development
- leaf formation [3]: allow unifoliolate (but not trifoliolate) formation
- leaf and root development (wild type soybeans): consistently stunt or inhibit leaf and root development

SMILES: CC(C)C1(C)N=C(c2nc3ccccc3cc2C(=O)O)NC1=O (stereo not shown) [Compound 9, 2-[4,5-dihydro-4-methyl-4-(1-methylethyl)-5-oxo-1H-imidazol-2-Yl]-3-quinolinecarboxylic acid]
- pest or weed control at 250 g/ha (Williams 82): 8%
- pest or weed control at 1000 g/ha (Williams 82): 13%
- soybean crop injury (%) at 250 g/ha (mutant line W17; W17, 250 g/ha postemergence): 0%
- soybean crop injury (%) at 1000 g/ha (mutant line W17; W17, 1000 g/ha postemergence): 8%
- percent soybean crop injury at 250 g/ha (mutant line W19; W19, 250 g/ha postemergence): 9%
- percent soybean crop injury at 1000 g/ha (mutant line W19; W19, 1000 g/ha postemergence): 9%
- percent soybean injury at 250 g/ha (mutant line W23; W23, 250 g/ha postemergence): 9%
- percent soybean injury at 1000 g/ha (mutant line W23; W23, 1000 g/ha postemergence): 13%
- mean % injury to soybean at 250 g/ha (mutant line W28; W28, 250 g/ha postemergence): 9%
- mean % injury to soybean at 1000 g/ha (mutant line W28; W28, 1000 g/ha postemergence): 15%
- % crop injury at 250 g/ha (mutant line W4; W4, 250 g/ha postemergence): 13%
- % crop injury at 1000 g/ha (mutant line W4; W4, 1000 g/ha postemergence): 13%
- percent crop injury at 250 g/ha (mutant line W20; W20, 250 g/ha postemergence): 5%
- percent crop injury at 1000 g/ha (mutant line W20; W20, 1000 g/ha postemergence): 15%
- uninhibited ALS activity as % of control (ALS of W20): 18.4 % of control
- uninhibited ALS activity as % of control (ALS of W23-10): 19.5 % of control
- uninhibited ALS activity as % of control (ALS of W23-11): 13.0 % of control
- uninhibited ALS activity as % of control (ALS of W4-4): 44.3 % of control
- uninhibited ALS activity as % of control (ALS of W4-5): 19.3 % of control
- uninhibited ALS activity as % of control (ALS of W4-6): 10.7 % of control
- uninhibited ALS activity as % of control (ALS of W6-1): 16.2 % of control
- uninhibited ALS activity as % of control (ALS of W6-2): 11.7 % of control
- uninhibited ALS activity as % of control (ALS of W6-4): 18.7 % of control
- uninhibited ALS activity as % of control (ALS of Williams): 14.0 % of control

SMILES: CN(C)C(=O)C(c1ccccc1)c1ccccc1 [diphenamid]
- reduction in seedling weight (tolerant tomato lines): 25%
- reduction in seedling weight (original cultivar): 40%
